# Assay results from patent US6855512B2, “Methods for identifying inhibitors of cytochrome P450RAI” (Allergan, Inc., priority 2000, dated 2005).
# Molecular target: T1, P450RAI-1 (Homo sapiens, UniProt O43174)
# T1 construct: expressed in transfected cells; host or cells: HeLa (stably transfected, hygromycin selection)
# T1 sequence (O43174 1-497): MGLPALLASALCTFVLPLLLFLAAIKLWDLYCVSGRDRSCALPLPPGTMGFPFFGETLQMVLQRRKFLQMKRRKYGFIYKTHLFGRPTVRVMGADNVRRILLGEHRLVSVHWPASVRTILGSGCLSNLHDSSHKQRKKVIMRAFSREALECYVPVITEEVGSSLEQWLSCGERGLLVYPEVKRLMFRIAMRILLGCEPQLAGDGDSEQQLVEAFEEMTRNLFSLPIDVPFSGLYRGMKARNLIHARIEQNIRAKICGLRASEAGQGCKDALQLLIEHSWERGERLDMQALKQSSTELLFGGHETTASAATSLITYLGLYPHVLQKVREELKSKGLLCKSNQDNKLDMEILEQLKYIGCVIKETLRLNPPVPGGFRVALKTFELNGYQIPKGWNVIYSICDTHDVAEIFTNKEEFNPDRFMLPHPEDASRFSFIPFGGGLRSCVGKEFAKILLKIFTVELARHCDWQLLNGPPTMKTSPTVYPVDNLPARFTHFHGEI
# Assay: P450RAI-1 cell-based inhibitor assay (intact HeLa)
# Settings: read-out: P450RAI INHIBITION DATA INTACT HELA IC50
# Method: P450RAI-1 Cell-Based Inhibitor Assay:
# P450RAI-1 stably transfected HeLa cells are maintained in […] tissue culture dishes in Modified Eagle's Medium (MEM) containing 10% Fetal Bovine Serum (FBS) and 100 μg/ml hygromycin. Exponentially growing cells are harvested by incubating in trypsin. Cells are then washed with 1× Phosphate Buffered Saline (PBS) and plated in a 48-well plate at 5×10^5 cells in 0.2 ml MEM medium containing 10% FBS and 0.05 μCi [^3H]-RA in the presence or absence of increasing concentrations of the test compounds. The compounds are diluted in 100% DMSO and then added in triplicate wells at either 10, 1 or 0.1 μM final concentration. As a positive control for RA metabolism inhibition, cells are also incubated with ketoconazole at 100, 10 and 1 μM. Cell are incubated for 3 hours at 37° C. […] The water soluble radioactivity is quantified using β-scintillation counter. IC50 values represent the concentration of inhibitor required to inhibit all-trans-RA metabolism by 50 percent and are derived manually from log-transformed data.
row,Structure (SMILES),IC50 [µM]
1,CC1(C)CCSc2ccc(C#Cc3ccc(CC(=O)O)cc3)cc21 [Compound 202],0.6
2,CC1(C)CC(C)(C)c2cc(C(=O)Nc3ccc(C(=O)O)c(F)c3)cc(Cl)c2O1 [Compound 203],0.62
3,CC1(C)CC(C)(C)c2cc(C(=O)Nc3ccc(C(=O)O)c(F)c3)cc(C3CC3)c2O1 [Compound 204],0.7
4,CC1(C)CC(C)(C)c2cc(C(=O)Nc3ccc(C(=O)O)c(F)c3)cc(C(F)(F)F)c2O1 [Compound 205],1
5,CCC1(CC)CC(C)(C)c2cc(C(=O)Nc3ccc(C(=O)O)c(F)c3)cc(Br)c2O1 [Compound 206],1.8
6,CC1(C)CCCc2ccc(C#Cc3ccc(C(=O)O)cc3)cc21 [Compound 208],1
7,CC(C)(C)c1cc(C#Cc2ccc(C(=O)O)cc2)cc(Cl)c1O [Compound 209],1.7
8,CC1=C(/C=C/C#Cc2ccc(C(=O)O)cc2)C(C)(C)CCC1(C)C [Compound 212],7
9,COc1ccc(C#Cc2ccc(C(=O)O)cc2)cc1C12CC3CC(CC(C3)C1)C2 [Compound 214],1.9
10,CC1(C)CCSc2ccc(C#Cc3ccc(C(=O)O)cc3)cc21 [Compound 215],6.2
11,CC1(C)CCC(C)(C)c2cc(C#Cc3ccc(C(=O)O)cc3)ccc21 [Compound 216],3.3
12,CC1=C(/C=C/C#Cc2ccc(C(=O)O)cc2)C(C)(C)CCC1 [Compound 217],6.3
13,CC1(C)CCCc2cc(C#Cc3ccc(C(=O)O)cc3)ccc21 [Compound 218],3.4
14,CC1=C(/C=C/C#Cc2ccc(C(=O)O)cc2)C(C)(C)CCS1 [Compound 219],3.2
15,Cc1cc(C(=O)Nc2ccc(C(=O)O)c(F)c2)cc2c1OC(C)(C)CC2(C)C [Compound 220],1
16,CC1(C)CC(C)(C)c2cc(C(=O)Nc3ccc(C(=O)O)c(F)n3)cc(Cl)c2O1 [Compound 221],> 10
17,CCOc1c(I)cc(C(=O)Nc2ccc(C(=O)O)c(F)c2)cc1C(C)(C)C [Compound 222],> 10
18,CCOc1c(Br)cc(C(=O)Nc2ccc(C(=O)O)c(F)c2)cc1C(C)(C)C [Compound 223],> 10
19,CC1(C)CC(C)(C)c2cc(C(=O)Nc3ccc(C(=O)O)c(F)c3)cc(-c3ccccc3)c2O1 [Compound 224],5.5
20,CC1(C)CCOc2c(Br)cc(C(=O)Nc3ccc(C(=O)O)c(F)c3)cc21 [Compound 225],> 10

row,Structure (SMILES),IC50 [µM]
1,COc1cc(C(=O)Nc2ccc(C(=O)O)c(F)c2)cc2c1OC(C)(C)CC2(C)C [Compound 226],> 10
2,Cc1cc(C(=O)Nc2ccc(C(=O)O)cc2)cc2c1OC(C)(C)CC2(C)C [Compound 227],1.3
3,CC1(C)CC(C)(C)c2cc(C(=O)Nc3ccc(C(=O)O)c(F)c3)ccc2O1 [Compound 228],6
4,CC1=C(/C=C/C#Cc2ccc(C(=O)O)c(F)c2)C(C)(C)CCC1 [Compound 229],1.6
5,CC1(C)CCC(C)(C)c2cc(C#Cc3ccc(C(=O)O)c(F)c3)ccc21 [Compound 230],5.1
6,CC1(C)CC(C)(C)c2cc(C(=O)Oc3ccc(C(=O)O)cc3)ccc2O1 [Compound 231],4.1
7,CC1(C)CCC(O)c2ccc(C#Cc3ccc(C(=O)O)cc3)cc21 (stereo not drawn) [Compound 232],4.2
8,O=C(O)c1ccc2cc(-c3ccc(O)c(C45CC6CC(CC(C6)C4)C5)c3)ccc2c1 [Compound 233],1.3
9,COc1ccc(-c2ccc3cc(C(=O)O)ccc3c2)cc1C12CC3CC(CC(C3)C1)C2 [Compound 234],4.7
10,CC(C)(C)c1cc(C#Cc2ccc(C(=O)O)cc2)cc(C(C)(C)C)c1O [Compound 235],7
11,CC1(C)CCC(C)(C)c2cc(C(=O)Nc3ccc(C(=O)O)c(F)c3)ccc21 [Compound 237],6.8
12,CC1(C)CCSc2ccc(C#Cc3ccc(C(=O)O)cn3)cc21 [Compound 238],7.2
13,CC1(C)CCSc2ccc(C#Cc3ccc(C(=O)O)s3)cc21 [Compound 240],3
14,CC1(C)CCC(C)(C)c2cc(-c3ccc4cc(C(=O)O)ccc4c3)ccc21 [Compound 241],5.5
15,CC1(C)CCC(C)(C)c2cc(C(=O)/C=C/c3ccc(C(=O)O)cc3)ccc21 [Compound 242],5.8
16,CC1(C)CCC(C)(C)c2cc(C(=O)Oc3ccc(C(=O)O)cc3)ccc21 [Compound 243],7.4
17,CC1=C(/C=C/C#Cc2ccc(C(=O)O)cn2)C(C)(C)CCC1 [Compound 244],5.1
18,CC1=C(/C=C/C#Cc2ccc(C(=O)O)s2)C(C)(C)CCC1 [Compound 245],3.3
19,CC1(C)CCC(C)(C)c2c1cc(O)c(C(=O)Nc1ccc(C(=O)O)cc1)c2F [Compound 246],3.1
